From patent publication US8227499B2, “Substituted-aryl-(imidazole)-methyl)-phenyl compounds as subtype selective modulators of alpha 2B and/or alpha 2C adrenergic receptors” (Allergan, Inc., priority 2008, dated 2012) come the findings set out here.

Read-outs that look alike come from different tables or passages of the source.

In one experiment the target is T1, alpha 2C receptor (Homo sapiens, UniProt P18825).
T1 construct: expressed in transfected cells; host or cells: NIH-3T3 cells
T1 sequence (P18825 1-462): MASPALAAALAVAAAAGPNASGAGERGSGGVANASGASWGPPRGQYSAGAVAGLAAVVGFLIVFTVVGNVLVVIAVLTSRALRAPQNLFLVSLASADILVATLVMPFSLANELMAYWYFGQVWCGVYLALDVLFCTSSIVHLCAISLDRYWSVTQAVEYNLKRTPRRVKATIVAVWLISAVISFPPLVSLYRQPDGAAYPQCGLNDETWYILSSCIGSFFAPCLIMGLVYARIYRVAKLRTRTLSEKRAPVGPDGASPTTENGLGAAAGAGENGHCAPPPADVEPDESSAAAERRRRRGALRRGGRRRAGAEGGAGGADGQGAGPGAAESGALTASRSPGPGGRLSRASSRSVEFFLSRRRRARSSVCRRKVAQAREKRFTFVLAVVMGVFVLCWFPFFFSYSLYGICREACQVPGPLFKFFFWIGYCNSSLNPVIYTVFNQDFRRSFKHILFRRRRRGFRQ
Briefly: Receptor Selection and Amplification technology (RSAT) assay, alpha 2C. It counts as cell-based. The settings on record: for Alpha 2C intrinsic activity (relative efficacy): RSAT, number in parentheses, ratio of maximal effect to that of standard full agonist brimonidine (UK14304). The source says:
The compounds disclosed herein are agonists of alpha 2B/2C adrenergic receptors. […] 76, pp. 308-311 (incorporated herein by reference) and is also described below. Another reference pertinent to this assay is Conklin et al. (1993) Nature 363: 274-6, also incorporated herein by reference.
(§1) The RSAT assay measures a receptor-mediated loss of contact inhibition that results in selective proliferation of receptor-containing cells in a mixed population of confluent cells. The increase in cell number is assessed with an appropriate transfected marker gene such as β-galactosidase, the activity of which can be easily measured in a 96-well format. Receptors that activate the G protein, Gq, elicit this response. Alpha 2 receptors, which normally couple to Gi, activate the RSAT response when coexpressed with a hybrid Gq protein that has a G; receptor recognition domain, called Gq/i5.
(§2) NIH-3T3 cells are plated at a density of 2×10^6 cells in 15 cm dishes and maintained in Dulbecco's modified Eagle's medium supplemented with 10% calf serum. One day later, cells are cotransfected by calcium phosphate precipitation with mammalian expression plasmids encoding p-SV-β-galactosidase (5-10 μg), receptor (1-2 μg) and G protein (1-2 μg). 40 μg salmon sperm DNA may also be included in the transfection mixture. Fresh media is added on the following day and 1-2 days later, cells are harvested and frozen in 50 assay aliquots. Cells are thawed and 100 μl added to 100 μl aliquots of various concentrations of drugs in triplicate in 96-well dishes. Incubations continue 72-96 hr at 37° C. After washing with phosphate-buffered saline, .E-backward.-galactosidase enzyme activity is determined by adding 200 μl of the chromogenic substrate (consisting of 3.5 mM o-nitrophenyl-beta-D-galactopyranoside and 0.5% nonidet P-40 in phosphate buffered saline), incubating overnight at 30° C. and measuring optical density at 420 nm. The absorbance is a measure of enzyme activity, which depends on cell number and reflects a receptor-mediated cell proliferation. The efficacy or intrinsic activity is calculated as a ratio of the maximal effect of the drug to the maximal effect of a standard full agonist for each receptor subtype. Brimonidine, also called UK14304, the chemical structure of which is shown below, is used as the standard agonist for the alpha 2A, alpha 2B and alpha 2C receptors.

A further experiment has as its target T2, alpha 2B receptor (Homo sapiens, UniProt P18089).
T2 construct: expressed in transfected cells; host or cells: NIH-3T3 cells
T2 sequence (P18089 1-450): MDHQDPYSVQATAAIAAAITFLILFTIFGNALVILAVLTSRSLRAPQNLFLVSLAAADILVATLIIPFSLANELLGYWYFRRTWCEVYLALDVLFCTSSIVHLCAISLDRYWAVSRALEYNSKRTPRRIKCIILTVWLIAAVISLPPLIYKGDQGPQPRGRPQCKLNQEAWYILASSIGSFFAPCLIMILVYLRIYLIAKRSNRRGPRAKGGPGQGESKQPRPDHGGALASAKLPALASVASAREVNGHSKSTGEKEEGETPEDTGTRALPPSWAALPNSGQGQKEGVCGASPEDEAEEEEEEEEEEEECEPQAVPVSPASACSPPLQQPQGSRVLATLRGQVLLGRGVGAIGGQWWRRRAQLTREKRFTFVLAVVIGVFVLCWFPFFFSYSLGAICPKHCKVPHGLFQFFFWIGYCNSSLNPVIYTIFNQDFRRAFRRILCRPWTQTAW
Briefly: Receptor Selection and Amplification technology (RSAT) assay, alpha 2B. In kind it is cell-based. The settings on record: for Alpha 2B intrinsic activity (relative efficacy): RSAT, number in parentheses, ratio of maximal effect to that of standard full agonist brimonidine (UK14304). As to the method: as §1, §2

Setting [1] is: RSAT in transfected NIH-3T3 cells, number outside parentheses, read-out: Alpha 2B potency (EC50).
[2] abbreviates: RSAT in transfected NIH-3T3 cells, number outside parentheses, read-out: Alpha 2C potency (EC50).

A word on the EC50: it is the midpoint of the concentration-response curve. Regarding `Fc1c(C(c2ccccc2)c2c[nH]cn2)cccc1C(F)(F)F` (stereo not shown), the “Alpha 2C intrinsic activity (relative efficacy)” value at alpha 2C receptor was “No Data (.12)”. The EC50 at alpha 2B receptor (setting [1]) was 21 nM. In addition, the “Alpha 2B intrinsic activity (relative efficacy)” value at alpha 2B receptor was “.89”.
Consider `Clc1cccc(C(c2ccccc2)c2c[nH]cn2)c1Cl` (stereo not shown), for which the EC50 on alpha 2C receptor (setting [2]) was 332 nM; at alpha 2B receptor (setting [1]), 6.9 nM. The “Alpha 2C intrinsic activity (relative efficacy)” value at alpha 2C receptor is “.40”. The “Alpha 2B intrinsic activity (relative efficacy)” value on alpha 2B receptor is reported as 1.19.
Consider `Fc1cccc(C(c2ccccc2)c2c[nH]cn2)c1` (stereo not shown), for which the “Alpha 2C intrinsic activity (relative efficacy)” value on alpha 2C receptor is “No Data (.15)”. On alpha 2B receptor, the response was half-maximal at 332 nM (EC50) and the “Alpha 2B intrinsic activity (relative efficacy)” value came out at 1.00.
For the compound `Fc1cccc(C(c2ccccc2)c2c[nH]cn2)c1F` (stereo not shown), the “Alpha 2C intrinsic activity (relative efficacy)” value at alpha 2C receptor is given as “No Data (.22)”. Moreover, the EC50 on alpha 2B receptor (setting [1]) was determined as 62 nM. Also, the “Alpha 2B intrinsic activity (relative efficacy)” value at alpha 2B receptor is reported as 1.10.
Turning to `Cc1c(Cl)cccc1C(c1ccccc1)c1c[nH]cn1` (stereo not shown), the values for the EC50 on alpha 2C receptor (setting [2]) and on alpha 2B receptor (setting [1]) were 411 nM and 18 nM, respectively. Further, the “Alpha 2C intrinsic activity (relative efficacy)” value on alpha 2C receptor is reported as “.35”. The “Alpha 2B intrinsic activity (relative efficacy)” value at alpha 2B receptor was determined as 1.35.
Consider `Fc1c(Cl)cccc1C(c1ccccc1)c1c[nH]cn1` (stereo not shown), for which, on alpha 2C receptor, the “Alpha 2C intrinsic activity (relative efficacy)” value is given as “No Data (.21)”. Further, the EC50 at alpha 2B receptor (setting [1]) was determined as 44 nM. In addition, the “Alpha 2B intrinsic activity (relative efficacy)” value on alpha 2B receptor is given as “.91”.
For `Cc1ccccc1C(c1ccccc1)c1c[nH]cn1` (stereo not shown), on alpha 2C receptor, the EC50 came to 1900 nM and the “Alpha 2C intrinsic activity (relative efficacy)” value was “.64”. For the same compound, on alpha 2B receptor, the EC50 was 55 nM and the “Alpha 2B intrinsic activity (relative efficacy)” value was “.99”.
`Cc1cccc(C(c2ccccc2)c2c[nH]cn2)c1C` (stereo not shown): the EC50 on alpha 2C receptor (setting [2]) was determined as 91 nM; on alpha 2B receptor (setting [1]), 1.8 nM. The “Alpha 2C intrinsic activity (relative efficacy)” value on alpha 2C receptor was 1.02. Further, the “Alpha 2B intrinsic activity (relative efficacy)” value on alpha 2B receptor was 1.23.
